In PubChem BioAssay AID1963431 (Molecular Pharmacology Branch, DTP, NCI, 2024) one finds IC50 and viability, T/C data, which are given here for 2 molecules.

Where “and” joins values, the source holds several entries; their conditions need not be identical. Equal entries are not always repeated. Some results are limits rather than exact numbers.

The experiment has as its system Rh18 complex spheroid viability, percent test/control. The experiment in a line: Anticancer human tumor Rh18 cell line growth inhibition [Asc].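 As to all read-outs here: spheroids exposed to compound for 7 days.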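 As to viability, T/C: 100% = DMSO vehicle control wells.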 To be noted: for viability, T/C: stronger effect = lower value. Summed up:
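Stromal components (HUVEC and hMSC) are co-assembled with the cancer cells into multicellular spheroids. Drugs are then added singly or paired, at concentrations falling by half-log increments from a clinically achievable maximum, capped at 10 microM without known Cmax.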

With `Cc1nc(N2CCC3(CC2)COC(C)C3N)c(CO)nc1Sc1ccnc(N)c1Cl` (configuration not stated) + CCN1C(C(=O)NC23CCC(C(=O)O)(CC2)CC3)C(c2cccc(Cl)c2F)C2(C(=O)Nc3cc(Cl)ccc32)C12CCCCC2, the IC50 (in general, the concentration that gives 50% inhibition) is less than 9.49 nM (curve of first compound, second compound 0.03 µM); less than 9.49 nM (curve of first compound, second compound 0.0949 µM); less than 9.49 nM (curve of first compound, second compound 0.3 µM); less than 9.49 nM (curve of first compound, second compound 0.949 µM); less than 9.49 nM (curve of first compound, second compound 3 µM). In addition, the viability, T/C – broadly, the result in the treated group divided by that in the control group, in per cent – reads like this: (second compound 0.03 µM, first compound 0.00949 µM) 27%; (second compound 0.03 µM, first compound 0.03 µM) 25.9%; (second compound 0.03 µM, first compound 0.0949 µM) 21.3%; (second compound 0.03 µM, first compound 0.3 µM) 17.6%; (second compound 0.03 µM, first compound 0.949 µM) 12.5%; (second compound 0.03 µM, first compound 3 µM) 10.6%. For the same molecule, the viability, T/C is, setting by setting: (second compound 0.0949 µM, first compound 0.00949 µM) 15.7%; (second compound 0.0949 µM, first compound 0.03 µM) 14.1%; (second compound 0.0949 µM, first compound 0.0949 µM) 12.6%; (second compound 0.0949 µM, first compound 0.3 µM) 10.3%; (second compound 0.0949 µM, first compound 0.949 µM) 10%; (second compound 0.0949 µM, first compound 3 µM) 5.48%. Further, the viability, T/C (second compound 0.3 µM, first compound 0.00949 µM) was 10.6%; the viability, T/C (second compound 0.3 µM, first compound 0.03 µM) is 11.8%; the viability, T/C (second compound 0.3 µM, first compound 0.0949 µM) is 7.08%; the viability, T/C (second compound 0.3 µM, first compound 0.3 µM) is 6.62%; the viability, T/C (second compound 0.3 µM, first compound 0.949 µM) is 4.84%; the viability, T/C (second compound 0.3 µM, first compound 3 µM) is 3.71%. For the same molecule, the viability, T/C by setting is: (second compound 0.949 µM, first compound 0.00949 µM) 7.44%; (second compound 0.949 µM, first compound 0.03 µM) 6.92%; (second compound 0.949 µM, first compound 0.0949 µM) 5.92%; (second compound 0.949 µM, first compound 0.3 µM) 4.76%; (second compound 0.949 µM, first compound 0.949 µM) 3.46%; (second compound 0.949 µM, first compound 3 µM) 1.83%. Moreover, the viability, T/C (second compound 3 µM, first compound 0.00949 µM) was 5.58%; the viability, T/C (second compound 3 µM, first compound 0.03 µM) is 7.16%; the viability, T/C (second compound 3 µM, first compound 0.0949 µM) was 4.62%; the viability, T/C (second compound 3 µM, first compound 0.3 µM) was 3.55%; the viability, T/C (second compound 3 µM, first compound 0.949 µM) is 3.01%; the viability, T/C (second compound 3 µM, first compound 3 µM) is 1.74%.
As to `C=C(F)C(=O)N1CCN(c2nc(OCC3CCCN3C)nc3c2CCN(c2cccc4cccc(Cl)c24)C3)CC1CC#N` (configuration not stated), the viability, T/C is 94.1% and 96.8% and 96.1% (compound 0.0316 µM); 98.8% and 93.5% and 87.2% (compound 0.1 µM); 90.9% and 56.4% and 91.5% (compound 0.316 µM); 97.4% and 101% and 93.5% (compound 1 µM); 35.8% and 36.4% and 35.5% (compound 3.16 µM); 0.31% and 0.29% and 0.27% (compound 10 µM). The IC50 (curve of compound) is 2410 nM and 2320 nM and 2350 nM.
